Data taken from patent publication US10898481B2 (priority 2018, dated 2021).

Columns and labels:
hA2a/CHO = hA2a/CHO (Homo sapiens (Human), UniProt P29274); assay: cAMP inhibition assay in hA2a/CHO cells, 10 μM adenosine; format: cell-based; details: read-out: cAMP & FLIPR IC50 (nM) hA2a;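 further: compounds added to cells 30 min ahead of adenosine, then a further 30 min at 37 °C with adenosine before cAMP detection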
Method: hA2a/CHO, hA2b/CHO, hA3/CHO and mA2a/CHO (Genscript) were plated at 5×10^3 cells/well into 384-well polystyrene plates at the day of experiment. Compounds were pre-incubated with cells for 30 min at 37° C., 5% CO2. Then 10 μM adenosine was added to the cells and incubated for 30 min at 37° C., 5% CO2. Detection reagent (CISBIO) was added and the plates were incubated for 60 min at room temperature. The signal was captured by Envision.

[1] = biological target: hADORA1/CHO (hA1 expressing) cells (Homo sapiens (Human), UniProt P30542); assay: cell-based; details: FLIPR inhibition, 10 μM adenosine, read-out: cAMP & FLIPR IC50 (nM) hA1
Sequence of hADORA1/CHO (hA1 expressing) cells (P30542 whole entry): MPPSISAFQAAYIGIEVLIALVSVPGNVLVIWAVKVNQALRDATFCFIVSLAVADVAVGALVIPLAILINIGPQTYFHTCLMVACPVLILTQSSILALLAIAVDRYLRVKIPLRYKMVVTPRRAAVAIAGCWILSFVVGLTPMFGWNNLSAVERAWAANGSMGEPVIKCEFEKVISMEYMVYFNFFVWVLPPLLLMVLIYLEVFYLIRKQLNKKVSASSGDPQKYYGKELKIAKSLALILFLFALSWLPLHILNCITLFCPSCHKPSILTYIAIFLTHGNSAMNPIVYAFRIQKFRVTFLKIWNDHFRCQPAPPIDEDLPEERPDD

Sequence of hA2a/CHO (P29274 whole entry): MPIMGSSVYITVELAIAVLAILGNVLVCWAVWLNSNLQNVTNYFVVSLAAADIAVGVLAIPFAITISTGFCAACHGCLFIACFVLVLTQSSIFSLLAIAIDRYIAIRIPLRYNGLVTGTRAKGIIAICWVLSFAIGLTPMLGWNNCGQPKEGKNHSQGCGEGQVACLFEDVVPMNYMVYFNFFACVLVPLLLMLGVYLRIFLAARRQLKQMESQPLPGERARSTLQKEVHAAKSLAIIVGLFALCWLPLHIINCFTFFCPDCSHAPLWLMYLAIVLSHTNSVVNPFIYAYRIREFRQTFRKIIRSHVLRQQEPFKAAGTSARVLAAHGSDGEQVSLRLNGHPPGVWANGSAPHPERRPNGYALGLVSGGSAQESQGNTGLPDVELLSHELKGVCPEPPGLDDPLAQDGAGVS

Row | Compound | IC50 (hA2a/CHO) [nM] | IC50 [1] [nM]
1 | Cc1cnc2ccc(-c3nc(C(=O)NCCN(C)C4CCOC4)c(N)nc3-c3ncco3)cn12 (racemic) [Cmpd. 233, rac-3-amino-N-(2-(methyl(tetrahydrofuran-3-yl)amino)ethyl)-6-(3-methylimidazo[1,2-a]pyridin-6-yl)-5-(oxazol-2-yl)pyrazine-2-carboxamide] | 38 | 1910
2 | Cc1cnc2ccc(-c3nc(C(=O)NCc4cccc(N5CCC(N(C)C)C5)n4)c(N)nc3-c3ncco3)cn12 (single isomer, unassigned) [Cmpd. 232, 3-amino-N-((6-(3-(dimethylamino)pyrrolidin-1-yl)pyridin-2-yl)methyl)-6-(3-methylimidazo[1,2-a]pyridin-6-yl)-5-(oxazol-2-yl)pyrazine-2-carboxamide] | 0.5 | 1500
3 | Cc1cnc2ccc(-c3nc(C(=O)NCc4cccc(N5CCC(N(C)C)C5)n4)c(N)nc3-c3ncco3)cn12 (single isomer, unassigned) [Cmpd. 235, 3-amino-N-((6-(3-(dimethylamino)pyrrolidin-1-yl)pyridin-2-yl)methyl)-6-(3-methylimidazo[1,2-a]pyridin-6-yl)-5-(oxazol-2-yl)pyrazine-2-carboxamide] | 0.8 | 5180
4 | Cc1cnc2ccc(-c3nc(C(=O)NCC(C4CC4)N(C)C)c(N)nc3-c3ncco3)cn12 (single isomer, unassigned; isomer 1) [Example 253, 3-amino-N-(2-cyclopropyl-2-(dimethylamino)ethyl)-6-(3-methylimidazo[1,2-a]pyridin-6-yl)-5-(oxazol-2-yl) pyrazine-2-carboxamide (isomer 1)] | 12 | 8170
5 | Cc1cnc2ccc(-c3nc(C(=O)NCC4CC(C)(C)O4)c(N)nc3-c3ncco3)cn12 (single isomer, unassigned; isomer 1) [Example 260, 3-amino-N-((4,4-dimethyloxetan-2-yl)methyl)-6-(3-methylimidazo[1,2-a]pyridin-6-yl)-5-(oxazol-2-yl)pyrazine-2-carboxamide (isomer 1)] | 5.9 | 30
6 | Cc1cnc2ccc(-c3nc(C(=O)NCC4CCCN(C)C4=O)c(N)nc3-c3ncco3)cn12 (single isomer, unassigned; isomer 1) [Example 263, 3-amino-N-((1-methyl-2-oxopiperidin-3-yl)methyl)-6-(3-methylimidazo[1,2-a]pyridin-6-yl)-5-(oxazol-2-yl) pyrazine-2-carboxamide (isomer 1)] | 0.4 | 103
7 | Cc1cnc2ccc(-c3nc(C(=O)NC(C)C4CCCO4)c(N)nc3-c3ncco3)cn12 (single isomer, unassigned; isomer 1) [Example 266, 3-amino-6-(3-methylimidazo[1,2-a]pyridin-6-yl)-5-(oxazol-2-yl)-N-(1-(tetrahydrofuran-2-yl)ethyl)pyrazine-2-carboxamide (isomer 1)] | 7.6 | > 10000
8 | Cc1cnc2ccc(-c3nc(C(=O)NCC4CCN(C)C4=O)c(N)nc3-c3ccc(F)cc3)cn12 (single isomer, unassigned; isomer 1) [Example 267, 3-amino-5-(4-fluorophenyl)-N-((1-methyl-2-oxopyrrolidin-3-yl)methyl)-6-(3-methylimidazo[1,2-a]pyridin-6-yl) pyrazine-2-carboxamide (isomer 1)] | 0.9 | 2.8
9 | Cc1cnc2ccc(-c3nc(C(=O)NC[C@H]4CC(C)(C)CN4C)c(N)nc3-c3ncco3)cn12 (single isomer, unassigned; isomer 2) [Example 230, 3-amino-6-(3-methylimidazo[1,2-a]pyridin-6-yl)-5-(oxazol-2-yl)-N-((1,4,4-trimethylpyrrolidin-2-yl)methyl) pyrazine-2-carboxamide (isomer 2)] | 15 | 6000
10 | Cc1cnc2ccc(-c3nc(C(=O)NCC4CCCN(C)C4=O)c(N)nc3-c3ncco3)cn12 (single isomer, unassigned; isomer 2) [Example 254, 3-amino-N-((1-methyl-2-oxopiperidin-3-yl)methyl)-6-(3-methylimidazo[1,2-a]pyridin-6-yl)-5-(oxazol-2-yl) pyrazine-2-carboxamide (isomer 2)] | 0.7 | 99
11 | Cc1cnc2ccc(-c3nc(C(=O)NCC4CCN(C)C4=O)c(N)nc3-c3ccc(F)cc3)cn12 (single isomer, unassigned; isomer 2) [Example 256, 3-amino-5-(4-fluorophenyl)-N-((1-methyl-2-oxopyrrolidin-3-yl)methyl)-6-(3-methylimidazo[1,2-a]pyridin-6-yl) pyrazine-2-carboxamide (isomer 2)] | 1.8 | 34
12 | Cc1cnc2ccc(-c3nc(C(=O)NC(C)C4CCCO4)c(N)nc3-c3ncco3)cn12 (single isomer, unassigned; isomer 2) [Example 262, 3-amino-6-(3-methylimidazo[1,2-a]pyridin-6-yl)-5-(oxazol-2-yl)-N-(1-(tetrahydrofuran-2-yl)ethyl)pyrazine-2-carboxamide (isomer 2)] | 12 | 11600
13 | Cc1cnc2ccc(-c3nc(C(=O)NCC(C4CC4)N(C)C)c(N)nc3-c3ncco3)cn12 (single isomer, unassigned; isomer 2) [Example 269, 3-amino-N-(2-cyclopropyl-2-(dimethylamino)ethyl)-6-(3-methylimidazo[1,2-a]pyridin-6-yl)-5-(oxazol-2-yl) pyrazine-2-carboxamide (isomer 2)] | 37 | > 10000
14 | Cc1cnc2ccc(-c3nc(C(=O)NCC4CC(C)(C)O4)c(N)nc3-c3ncco3)cn12 (single isomer, unassigned; isomer 2) [Example 270, 3-amino-N-((4,4-dimethyloxetan-2-yl)methyl)-6-(3-methylimidazo[1,2-a]pyridin-6-yl)-5-(oxazol-2-yl)pyrazine-2-carboxamide (isomer 2)] | 7.4 | 300
15 | Cc1cnc2ccc(-c3nc(C(=O)NC(C)C4CCCO4)c(N)nc3-c3ncco3)cn12 (single isomer, unassigned; isomer 3) [Example 274, 3-amino-6-(3-methylimidazo[1,2-a]pyridin-6-yl)-5-(oxazol-2-yl)-N-(1-(tetrahydrofuran-2-yl)ethyl)pyrazine-2-carboxamide (isomer 3)] | 0.9 | 275
16 | NCc1cnc2ccc(-c3nc(C(=O)NCc4ncccc4F)c(N)nc3-c3ncco3)cn12 [Cmpd. 198, 3-amino-6-(3-(aminomethyl)imidazo[1,2-a]pyridin-6-yl)-N-((3-fluoropyridin-2-yl)methyl)-5-(oxazol-2-yl)pyrazine-2-carboxamide] | – | > 10000
17 | Cc1cnc2ccc(-c3nc(C(=O)NCc4ncccc4F)c(N)nc3N3CCOCC3)cn12 [Cmpd. 223, 3-amino-N-[(3-fluoropyridin-2-yl)methyl]-6-[3-methylimidazo[1,2-a]pyridin-6-yl]-5-(morpholin-4-yl)pyrazine-2-carboxamide] | – | > 10000
18 | Cc1cnc2ccc(-c3nc(CNC(=O)[C@H]4CCCN4C)c(N)nc3-c3cc(F)cc(F)c3)cn12 [Example 291, (2R)—N-[[3-amino-5-(3,5-difluorophenyl)-6-[3-methylimidazo[1,2-a]pyridin-6-yl]pyrazin-2-yl]methyl]-1-methylpyrrolidine-2-carboxamide] | 1.1 | –
19 | Cc1cnc2ccc(-c3nc(C(=O)N[C@@H](C)Cn4ccnn4)c(N)nc3-c3ncco3)cn12 [Example 296, (S)-N-(1-(lH-1,2,3-triazol-1-yl)propan-2-yl)-3-amino-6-(3-methylimidazo[1,2-a]pyridin-6-yl)-5-(oxazol-2-yl) pyrazine-2-carboxamide] | 0.9 | –
20 | Cc1cnc2ccc(-c3nc(C(=O)N[C@@H](C)Cn4nccn4)c(N)nc3-c3ncco3)cn12 [Example 297, 3-amino-6-[3-methylimidazo[1,2-a]pyridin-6-yl]-5-(1,3-oxazol-2-yl)-N-[(2S)-1-(2H-1,2,3-triazol-2-yl)propan-2-yl]pyrazine-2-carboxamide] | 0.2 | –
21 | Cc1cnc2ccc(-c3nc(C(=O)N[C@H](C)Cn4nccn4)c(N)nc3-c3ncco3)cn12 [Example 298, 3-amino-6-[3-methylimidazo[1,2-a]pyridin-6-yl]-5-(1,3-oxazol-2-yl)-N-[(2R)-1-(2H-1,2,3-triazol-2-yl)propan-2-yl]pyrazine-2-carboxamide] | 47 | –
22 | COCCCNC(=O)c1nc(-c2ccc3ncc(C)n3c2)c(-n2nccn2)nc1N [Example 299, 3-amino-N-(3-methoxypropyl)-6-(3-methylimidazo[1,2-a]pyridin-6-yl)-5-(2H-1,2,3-triazol-2-yl)pyrazine-2-carboxamide] | 4.9 | –
23 | Cc1cnc2ccc(-c3nc(C(=O)NCc4ncccc4OCCO)c(N)nc3-c3ncco3)cn12 [Example 300, 3-amino-N-((3-(2-hydroxyethoxy)pyridin-2-yl)methyl)-6-(3-methylimidazo [1,2-a]pyridin-6-yl)-5-(oxazol-2-yl) pyrazine-2-carboxamide] | 0.8 | –
24 | CNCCOc1cccnc1CNC(=O)c1nc(-c2ccc3ncc(C)n3c2)c(-c2ncco2)nc1N [Example 301, 3-amino-N-([3-[2-(methylamino)ethoxy]pyridin-2-yl]methyl)-6-[3-methylimidazo[1,2-a]pyridin-6-yl]-5-(1,3-oxazol-2-yl)pyrazine-2-carboxamide] | 3 | –
25 | Cc1cnc2ccc(-c3nc(C(=O)NCc4cccc(N5CCC(N(C)C)CC5)n4)c(N)nc3-c3ncco3)cn12 [Example 302, 3-amino-N-((6-(4-(dimethylamino)piperidin-1-yl)pyridin-2-yl)methyl)-6-(3-methylimidazo[1,2-a]pyridin-6-yl)-5-(oxazol-2-yl)pyrazine-2-carboxamide] | 2.4 | –
26 | CNC1CN(c2cccc(CNC(=O)c3nc(-c4ccc5ncc(C)n5c4)c(-c4ncco4)nc3N)n2)C1 [Example 303, 3-amino-N-((6-(3-(methylamino)azetidin-1-yl)pyridin-2-yl)methyl)-6-(3-methylimidazo[1,2-a]pyridin-6-yl)-5-(oxazol-2-yl)pyrazine-2-carboxamide] | 0.4 | –
